Measured values taken from ChEMBL document CHEMBL1201862, “PubChem BioAssay data set” (2004).
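Cells were grown in 96-well plates and exposed to each compound for 48 hours at five concentrations; endpoints were interpolated linearly between bracketing concentrations, or set to the highest concentration if not reached. GI50 marks 50% less growth.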 The source made the active and inactive calls. No stated cut-off is given here; in the data, active = GI50 up to about 1.1 µM and inactive = higher.

Experiments:
Test in all cases: growth of human tumour cells (NCI), 48 h
[1] = tested on: MDA-N
[2] = tested on: MCF7
[3] = tested on: A549
[4] = tested on: MOLT-4
[5] = tested on: SN12C
[6] = tested on: OVCAR-3
[7] = tested on: HCC 2998
[8] = tested on: UACC-257
[9] = tested on: ACHN
[10] = tested on: SK-OV-3
[11] = tested on: HOP-92
[12] = tested on: Malme-3M
[13] = tested on: U-251
[14] = tested on: UO-31
[15] = tested on: M14
[16] = tested on: SK-MEL-5
[17] = tested on: SK-MEL-28
[18] = tested on: OVCAR-5
[19] = tested on: LOX IMVI
[20] = tested on: UACC-62

| SMILES | GI50 [1] | GI50 [2] | GI50 [3] | GI50 [4] | GI50 [5] | GI50 [6] | GI50 [7] | GI50 [8] | GI50 [9] | GI50 [10] | GI50 [11] | GI50 [12] | GI50 [13] | GI50 [14] | GI50 [15] | GI50 [16] | GI50 [17] | GI50 [18] | GI50 [19] | GI50 [20] |
| --- | --- | --- | --- | --- | --- | --- | --- | --- | --- | --- | --- | --- | --- | --- | --- | --- | --- | --- | --- | --- |
| COC(=O)C(COC(C)=O)NC(=O)/C=C/c1ccc(O)c(OC(C)=O)c1 (stereo not given) | > 100 µM (inactive) | > 100 µM (inactive) | > 100 µM (inactive) | 13.6 µM (inactive) | > 100 µM (inactive) | 50.6 µM (inactive) | 63.4 µM (inactive) | > 100 µM (inactive) | 74 µM (inactive) | > 100 µM (inactive) | 83.4 µM (inactive) | > 100 µM (inactive) | 37 µM (inactive) | 49.2 µM (inactive) | > 100 µM (inactive) | > 100 µM (inactive) | 66.2 µM (inactive) | > 100 µM (inactive) | 44.6 µM (inactive) | > 100 µM (inactive) |
| C#C[C@]1(O)CC[C@H]2[C@@H]3CCC4=C/C(=N\OCCN(CC)CC)CC[C@]4(C)[C@H]3CC[C@@]21C | 2.18 µM (inactive) | 4.29 µM (inactive) | 5.77 µM (inactive) | 0.122 µM (active) | 9.12 µM (inactive) | 2.87 µM (inactive) | 10.2 µM (inactive) | 4.31 µM (inactive) | 6.7 µM (inactive) | 9.4 µM (inactive) | 16.5 µM (inactive) | 3.25 µM (inactive) | 8.04 µM (inactive) | 3.72 µM (inactive) | 3.02 µM (inactive) | 2.44 µM (inactive) | 7.66 µM (inactive) | 12.9 µM (inactive) | 3.13 µM (inactive) | 3.44 µM (inactive) |
| COc1ccc(C(C#N)NCCCCCCNC(C#N)c2ccc(OC)cc2)cc1 (stereo not given) | > 100 µM (inactive) | > 100 µM (inactive) | > 100 µM (inactive) | > 100 µM (inactive) | > 100 µM (inactive) | > 100 µM (inactive) | > 100 µM (inactive) | > 100 µM (inactive) | > 100 µM (inactive) | > 100 µM (inactive) | > 100 µM (inactive) | > 100 µM (inactive) | > 100 µM (inactive) | > 100 µM (inactive) | > 100 µM (inactive) | > 100 µM (inactive) | > 100 µM (inactive) | > 100 µM (inactive) | > 100 µM (inactive) | > 100 µM (inactive) |
| CCCCOC(=O)Nc1ccc(S(=O)(=O)Nc2ccccc2Cl)cc1 | 17.6 µM (inactive) | 19.2 µM (inactive) | 32.5 µM (inactive) | 12.6 µM (inactive) | 21.2 µM (inactive) | 19.1 µM (inactive) | 14.1 µM (inactive) | 31.3 µM (inactive) | 27.8 µM (inactive) | 16.8 µM (inactive) | 13.7 µM (inactive) | 24.8 µM (inactive) | 17.5 µM (inactive) | 25.6 µM (inactive) | 19.8 µM (inactive) | 12 µM (inactive) | 19.6 µM (inactive) | 25.8 µM (inactive) | 18.1 µM (inactive) | 17.1 µM (inactive) |
| Cc1ccc(C(=O)/C(C#N)=C/Nc2c(C)n(C)n(-c3ccccc3)c2=O)cc1 | > 100 µM (inactive) | > 100 µM (inactive) | > 100 µM (inactive) | > 100 µM (inactive) | > 100 µM (inactive) | > 100 µM (inactive) | > 100 µM (inactive) | > 100 µM (inactive) | > 100 µM (inactive) | > 100 µM (inactive) | 46.2 µM (inactive) | > 100 µM (inactive) | > 100 µM (inactive) | > 100 µM (inactive) | > 100 µM (inactive) | > 100 µM (inactive) | > 100 µM (inactive) | > 100 µM (inactive) | > 100 µM (inactive) | > 100 µM (inactive) |
| COc1c(O)cc(O)c2c(=O)cc(-c3ccccc3)oc12 [WOGONIN] | 84.7 µM (inactive) | 35.6 µM (inactive) | 42.9 µM (inactive) | 36.1 µM (inactive) | 90.6 µM (inactive) | 24.5 µM (inactive) | 35.2 µM (inactive) | 87.9 µM (inactive) | 31.4 µM (inactive) | 77.8 µM (inactive) | > 100 µM (inactive) | 85.3 µM (inactive) | 63.2 µM (inactive) | 2.58 µM (inactive) | 69 µM (inactive) | 34.2 µM (inactive) | > 100 µM (inactive) | 49.7 µM (inactive) | 22.4 µM (inactive) | 35.1 µM (inactive) |
| CN(C)CCCN1c2ccc([N+](=O)[O-])cc2CCc2cc([N+](=O)[O-])ccc21 | 13.6 µM (inactive) | 15.6 µM (inactive) | 16.4 µM (inactive) | 10.1 µM (inactive) | 15 µM (inactive) | 16 µM (inactive) | 11.9 µM (inactive) | 13.9 µM (inactive) | 15.6 µM (inactive) | 14.9 µM (inactive) | 5.41 µM (inactive) | 17.8 µM (inactive) | 13.7 µM (inactive) | 12 µM (inactive) | 14.5 µM (inactive) | 10.6 µM (inactive) | 15 µM (inactive) | 13.9 µM (inactive) | 13.2 µM (inactive) | 14.7 µM (inactive) |
| C#CCn1c(I)cc2c(c1=O)COC(=O)[C@]2(O)CC | > 100 µM (inactive) | > 100 µM (inactive) | > 100 µM (inactive) | > 100 µM (inactive) | > 100 µM (inactive) | > 100 µM (inactive) | > 100 µM (inactive) | > 100 µM (inactive) | > 100 µM (inactive) | > 100 µM (inactive) | > 100 µM (inactive) | > 100 µM (inactive) | > 100 µM (inactive) | > 100 µM (inactive) | > 100 µM (inactive) | > 100 µM (inactive) | > 100 µM (inactive) | > 100 µM (inactive) | > 100 µM (inactive) | > 100 µM (inactive) |
| CC1(c2cccc(Cl)c2)CC(c2cccc(Cl)c2)=C(C#N)C(=C(C#N)C#N)N1 (stereo not given) | 20.1 µM (inactive) | 20.6 µM (inactive) | 19.5 µM (inactive) | 12.5 µM (inactive) | 19.4 µM (inactive) | 10.3 µM (inactive) | 15.8 µM (inactive) | 20.1 µM (inactive) | 17.8 µM (inactive) | 18.7 µM (inactive) | 6.19 µM (inactive) | 17.1 µM (inactive) | 16.4 µM (inactive) | 15.7 µM (inactive) | 17.1 µM (inactive) | 14.6 µM (inactive) | 20.7 µM (inactive) | 24.2 µM (inactive) | 19.8 µM (inactive) | 17 µM (inactive) |
| CC(C(O)c1ccccc1)C(O)(C(F)(F)F)C(F)(F)F (stereo not given) | > 100 µM (inactive) | 76.4 µM (inactive) | > 100 µM (inactive) | > 100 µM (inactive) | > 100 µM (inactive) | > 100 µM (inactive) | > 100 µM (inactive) | > 100 µM (inactive) | > 100 µM (inactive) | > 100 µM (inactive) | 50.8 µM (inactive) | > 100 µM (inactive) | > 100 µM (inactive) | > 100 µM (inactive) | > 100 µM (inactive) | 49.7 µM (inactive) | > 100 µM (inactive) | > 100 µM (inactive) | > 100 µM (inactive) | > 100 µM (inactive) |
| O=C(NCCCNCCN1C(=O)c2cccc3cc([N+](=O)[O-])cc(c23)C1=O)c1cc(-c2ccccc2)nc2ccccc12 | 1.53 µM (inactive) | 2.17 µM (inactive) | 3.31 µM (inactive) | 0.347 µM (active) | 3.16 µM (inactive) | 5.87 µM (inactive) | 1.49 µM (inactive) | 2.21 µM (inactive) | 0.991 µM (active) | 8.91 µM (inactive) | 3.18 µM (inactive) | 1.81 µM (inactive) | 2.09 µM (inactive) | 2.52 µM (inactive) | 1.72 µM (inactive) | 2.09 µM (inactive) | 1.85 µM (inactive) | 3.94 µM (inactive) | 1.04 µM (active) | 5.12 µM (inactive) |
| COn1cc(CO)c2ccccc21 | 97.5 µM (inactive) | 52.7 µM (inactive) | > 62.1 µM (inactive) | 28.8 µM (inactive) | > 84.7 µM (inactive) | 40.8 µM (inactive) | 32.8 µM (inactive) | 25.2 µM (inactive) | 61.4 µM (inactive) | > 100 µM (inactive) | > 61.2 µM (inactive) | 53 µM (inactive) | 69.7 µM (inactive) | 33.1 µM (inactive) | > 86.9 µM (inactive) | 64.1 µM (inactive) | > 100 µM (inactive) | 7.96 µM (inactive) | > 100 µM (inactive) | 43.3 µM (inactive) |
| CCC1(N)C(=O)OCc2c1cc1n(c2=O)Cc2cc3ccccc3nc2-1 (stereo not given) | 17.7 µM (inactive) | 2.14 µM (inactive) | 6.58 µM (inactive) | 0.871 µM (active) | 3.99 µM (inactive) | > 55.7 µM (inactive) | 38.4 µM (inactive) | 36.6 µM (inactive) | 3.73 µM (inactive) | > 100 µM (inactive) | 35.4 µM (inactive) | 44.3 µM (inactive) | 6.73 µM (inactive) | 3.42 µM (inactive) | 7.41 µM (inactive) | 5.21 µM (inactive) | > 93.1 µM (inactive) | 44.5 µM (inactive) | 4.78 µM (inactive) | 2.75 µM (inactive) |
| Cn1c(=O)c2c(nc3sc4c(n32)C(=O)c2c(O)ccc(O)c2C4=O)n(C)c1=O | 1.86 µM (inactive) | 0.955 µM (active) | 12.7 µM (inactive) | 1.31 µM (inactive) | 1.63 µM (inactive) | 4.67 µM (inactive) | 4.11 µM (inactive) | 11.2 µM (inactive) | 2.94 µM (inactive) | 40.7 µM (inactive) | 2.66 µM (inactive) | 1.06 µM (active) | 14.6 µM (inactive) | 3.74 µM (inactive) | 2.51 µM (inactive) | 2.46 µM (inactive) | 6.05 µM (inactive) | 28 µM (inactive) | 0.871 µM (active) | 4.73 µM (inactive) |
